Data from patent US20060148730A1, “Method of treating tuberculosis” (priority 2003, published 2006).
“Also recorded” adds a separate entry of the source.

Experiments:
[1] = system: M. tuberculosis H37Rv; assay: MIC vs. M. tuberculosis H37Rv, microplate Alamar Blue assay (MABA); assay type: cell-based; conditions: result in words
[2] = system: VERO cells
[3] = system: VERO cells; assay: Cytotoxicity against VERO cells (MTS, 72 hours)

CCCCCCCCCCN1CCCC(O/N=C2\[C@H](C)C[C@@](C)(OC)[C@H](O[C@@H]3O[C@H](C)C[C@H](N(C)C)[C@H]3O)[C@@H](C)C(=O)[C@@H](C)C(=O)O[C@H](CC)[C@@](C)(O)[C@H](O)[C@H]2C)C1 (stereo partly drawn) [RU60887]
anti-TB activity / MIC in words [1]: most potent of the tested 9-oxime compounds; also recorded: very low
in vitro toxicity / cytotoxicity in words [2]: comparable to clarithromycin
selectivity index (SI), VERO cells [3]: 221
